According to patent publication US9567339B2, “Primary carboxamides as BTK inhibitors” (AbbVie Inc., priority 2013, dated 2017):
Where two headings read alike, the source gives them in different places.

Biological target: BTK, recombinant human catalytic domain (aa 393-659) (Homo sapiens (Human), UniProt Q06187)
Test: In vitro BTK kinase activity measured by time-resolved fluorescence resonance energy transfer (trFRET)
Format: biochemical
[1] = trFRET, 0.001 mM ATP, biotin-TYR1 peptide substrate, read-out: Btk IC50

Sequence of BTK, recombinant human catalytic domain (aa 393-659) (Q06187 393-659): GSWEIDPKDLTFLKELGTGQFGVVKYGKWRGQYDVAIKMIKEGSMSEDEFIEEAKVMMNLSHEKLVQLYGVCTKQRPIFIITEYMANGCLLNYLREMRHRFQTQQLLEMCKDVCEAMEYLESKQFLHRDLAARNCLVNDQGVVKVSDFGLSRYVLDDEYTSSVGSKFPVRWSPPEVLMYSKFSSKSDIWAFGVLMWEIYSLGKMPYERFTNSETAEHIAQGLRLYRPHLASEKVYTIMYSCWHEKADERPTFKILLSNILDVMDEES

SMILES | IC50 (read-out: Btk IC50) | also measured
C=CC(=O)Nc1cc(-c2ccc(C(N)=O)c3[nH]ccc23)ccc1OCc1nccs1 [E.1.13] | 100 to 1000 nM | –
C=CC(=O)Nc1cc(OCc2ccccc2)cc(-c2ccc(C(N)=O)c3[nH]ccc23)c1 [E.1.14] | 1000 to 10000 nM | –
C=CC(=O)Nc1cc(OCc2nccs2)cc(-c2ccc(C(N)=O)c3[nH]ccc23)c1 [E.1.15] | 100 to 1000 nM | –
C=CC(=O)Nc1cc(OCc2nccs2)ccc1-c1ccc(C(N)=O)c2[nH]ccc12 [E.1.16] | 1000 to 10000 nM | –
C=CC(=O)Nc1cc(OCc2ccccc2)ccc1-c1ccc(C(N)=O)c2[nH]ccc12 [E.1.17] | 1000 to 10000 nM | –
C=CC(=O)Nc1cccc(-c2ccc(C(N)=O)c3[nH]c(C=C)cc23)c1 [E.1.18] | < 100 nM | –
C=CC(=O)Nc1cc(-c2ccc(C(N)=O)c3[nH]ccc23)ccc1Cl [E.1.19] | < 100 nM | –
C=CC(=O)Nc1ccc(F)c(-c2ccc(C(N)=O)c3[nH]ccc23)c1F [E.1.20] | < 100 nM | –
C=CC(=O)Nc1cc(F)c(F)c(-c2ccc(C(N)=O)c3[nH]ccc23)c1 [E.1.21] | < 100 nM | –
C=CC(=O)Nc1cc(-c2ccc(C(N)=O)c3[nH]ccc23)c(F)cc1F [E.1.22] | < 100 nM | –
C=CC(=O)Nc1cc(-c2ccc(C(N)=O)c3[nH]ccc23)ccc1F [E.1.23] | < 100 nM | –
C=CC(=O)Nc1ccc(Cl)c(-c2ccc(C(N)=O)c3[nH]ccc23)c1 [E.1.24] | < 100 nM | –
C=CC(=O)Nc1cc(-c2ccc(C(N)=O)c3[nH]ccc23)ccc1C [E.1.25] | < 100 nM | –
C=CC(=O)Nc1cc(C#N)cc(-c2ccc(C(N)=O)c3[nH]ccc23)c1 [E.1.26] | 100 to 1000 nM | –
C=CC(=O)Nc1cccc(-c2ccc(C(N)=O)c3[nH]ccc23)c1C#N [E.1.27] | 100 to 1000 nM | –
C=CC(=O)Nc1cc(OC)cc(-c2ccc(C(N)=O)c3[nH]ccc23)c1 [E.1.28] | 100 to 1000 nM | –
C=CC(=O)Nc1cc(C)cc(-c2ccc(C(N)=O)c3[nH]ccc23)c1 [E.1.29] | 100 to 1000 nM | –
C=CC(=O)Nc1cccc(-c2ccc(C(N)=O)c3[nH]ccc23)c1OC [E.1.30] | 100 to 1000 nM | –
C=CC(=O)Nc1cc(-c2ccc(C(N)=O)c3[nH]ccc23)ccc1C#N [E.1.31] | < 100 nM | –
C=CC(=O)Nc1ccc(F)c(-c2ccc(C(N)=O)c3[nH]ccc23)c1 [E.1.32] | 100 to 1000 nM | –
C=CC(=O)Nc1cccc(-c2ccc(C(N)=O)c3[nH]ccc23)c1F [E.1.33] | < 100 nM | –

SMILES | IC50 (read-out: Btk IC50) | also measured
C=CC(=O)N(CC1CCCC1)c1cccc(-c2ccc(C(N)=O)c3[nH]ccc23)c1 [E.1.34, 4-(3-(N-(cyclopentylmethyl)acrylamido)phenyl)-1H-indole-7-carboxamide] | 1000 to 10000 nM | –
C=CC(=O)N(CC(C)C)c1cccc(-c2ccc(C(N)=O)c3[nH]ccc23)c1 [E.1.35, 4-(3-(N-isobutylacrylamido)phenyl)-1H-indole-7-carboxamide] | 100 to 1000 nM | –
Cc1oncc1C(=O)Nc1cccc(-c2ccc(C(N)=O)c3[nH]ccc23)c1 [E.2.1, N-(3-(7-carbamoyl-1H-indol-4-yl)phenyl)-5-methylisoxazole-4-carboxamide] | – | IC50 [1]: 1000 to 10000 nM
CN1CCC=C(C(=O)Nc2cccc(-c3ccc(C(N)=O)c4[nH]ccc34)c2)C1 [E.2.2] | – | IC50 [1]: 1000 to 10000 nM
Cc1c(NC(=O)c2nccs2)cccc1-c1ccc(C(N)=O)c2[nH]c(-c3ccccc3CNC(=O)CCl)cc12 [E.4.1] | 100 to 1000 nM | –
CCC(=O)NCc1ccccc1-c1cc2c(-c3cccc(NC(=O)c4nccs4)c3C)ccc(C(N)=O)c2[nH]1 [E.4.2] | 1000 to 10000 nM | –
CC(=O)NCc1ccccc1-c1cc2c(-c3cccc(NC(=O)c4nccs4)c3C)ccc(C(N)=O)c2[nH]1 [E.4.3] | 100 to 1000 nM | –
Cc1c(NC(=O)c2nccs2)cccc1-c1ccc(C(N)=O)c2[nH]cc(NC(=O)CCl)c12 [E.5.1] | – | IC50: 1000 to 10000 nM
CCOC(=O)N1CC=C(c2cc3c(-c4cccc(-n5cnc6ccccc6c5=O)c4C)ccc(C(N)=O)c3[nH]2)C1 [E.6.1] | < 100 nM | –
CCOC(=O)N1CC=C(c2cc3c(-c4cccc(-n5cnc6ccccc6c5=O)c4C)ccc(C(N)=O)c3[nH]2)CC1 [E.6.2] | < 100 nM | –
CC(=O)C(=O)Nc1cccc(-c2ccc(C(N)=O)c3[nH]ccc23)c1 [E.7.1] | 100 to 1000 nM | –
CC(=O)C(=O)NCc1cccc(-c2ccc(C(N)=O)c3[nH]ccc23)c1 [E.7.2] | 100 to 1000 nM | –
CC(=O)N1CC=C(c2cc3c(-c4cccc(-n5cnc6ccccc6c5=O)c4C)ccc(C(N)=O)c3[nH]2)C1 [E.8.1] | < 100 nM | –
CC(=O)N1CC=C(c2cc3c(-c4cccc(-n5cnc6ccccc6c5=O)c4C)ccc(C(N)=O)c3[nH]2)CC1 [E.8.2] | < 100 nM | –
C=CC(=O)N1CC(N(C)c2ccc(C(N)=O)c3[nH]c(C4(O)COC4)cc23)C1 [E.9.1.1] | 100 to 1000 nM | –
C=CC(=O)N1CC(N(C)c2ccc(C(N)=O)c3[nH]c(C4CC4)cc23)C1 [E.9.2] | < 100 nM | –
C=CC(=O)N1CC(N(C)c2ccc(C(N)=O)c3[nH]c(-c4ccc5c(c4)COCC5)cc23)C1 [E.9.3] | < 100 nM | –
C=CC(=O)N1CC(N(C)c2ccc(C(N)=O)c3[nH]c(-c4cc5n(n4)CCOC5)cc23)C1 [E.9.4] | < 100 nM | –
C=CC(=O)N1CC(N(C)c2ccc(C(N)=O)c3[nH]c(C4=CCC(F)(F)CC4)cc23)C1 [E.9.5] | < 100 nM | –
C=CC(=O)N1CC(N(C)c2ccc(C(N)=O)c3[nH]c(C4=CCC(S(C)(=O)=O)CC4)cc23)C1 (stereo not shown) [E.9.6] | < 100 nM | –
C=CC(=O)N1CCC[C@@H](c2ccc(C(N)=O)c3[nH]c(C)cc23)C1 [E.9.7] | < 100 nM | –

SMILES | IC50 (read-out: Btk IC50) | also measured
C=CC(=O)N1CCC[C@H](c2ccc(C(N)=O)c3[nH]c(C)cc23)C1 [E.9.8] | < 100 nM | –
C=CC(=O)N1CC(N(C)c2ccc(C(N)=O)c3[nH]c(-c4ccc(N5CCOCC5)nc4)cc23)C1 [E.9.10] | < 100 nM | –
C=CC(=O)N1CC(N(C)c2ccc(C(N)=O)c3[nH]c(-c4cnc5c(c4)COCC5)cc23)C1 [E.9.11] | < 100 nM | –
C=CC(=O)N1CC(N(C)c2ccc(C(N)=O)c3[nH]c(-c4ccc5c(c4)OCCC5)cc23)C1 [E.9.12] | < 100 nM | –
C=CC(=O)N1CC(N(C)c2ccc(C(N)=O)c3[nH]c(-c4ccc(CN5CCOCC5)cn4)cc23)C1 [E.9.13] | < 100 nM | –
C=CC(=O)N1CC(N(C)c2ccc(C(N)=O)c3[nH]c(-c4cnn(C)c4)cc23)C1 [E.9.14] | < 100 nM | –
C=CC(=O)N1CC(N(C)c2ccc(C(N)=O)c3[nH]c(-c4ccc5c(c4)NCCO5)cc23)C1 [E.9.15] | < 100 nM | –
C=CC(=O)N1CC(N(C)c2ccc(C(N)=O)c3[nH]c(-c4ccnn4C)cc23)C1 [E.9.16] | < 100 nM | –
C=CC(=O)N1CC(N(C)c2ccc(C(N)=O)c3[nH]c(-c4ccc5c(c4)CCN(CC)C5)cc23)C1 [E.9.17] | < 100 nM | –
C=CC(=O)N1CC(N(C)c2ccc(C(N)=O)c3[nH]c(-c4cn(C)nc4C)cc23)C1 [E.9.18] | < 100 nM | –
C=CC(=O)N1CC(N(C)c2ccc(C(N)=O)c3[nH]c(C4CCS(=O)(=O)CC4)cc23)C1 [E.9.19] | < 100 nM | –
C=CC(=O)N1CC(N(C)c2ccc(C(N)=O)c3[nH]c(C4CCN(CCC)CC4)cc23)C1 [E.9.20] | < 100 nM | –
C=CC(=O)N1CC(N(C)c2ccc(C(N)=O)c3[nH]c(C4CCOC4)cc23)C1 (stereo not shown) [E.9.21] | < 100 nM | –
C=CC(=O)N1CC(N(C)c2ccc(C(N)=O)c3[nH]c(C4(O)COC4)cc23)C1 [E.9.22] | 100 to 1000 nM | –
C=CC(=O)N1CCO[C@H](c2ccc(C(N)=O)c3[nH]c(-c4cnn(C)c4)cc23)C1 [E.9.23] | < 100 nM | –
C=CC(=O)N1CCO[C@@H](c2ccc(C(N)=O)c3[nH]c(-c4cnn(C)c4)cc23)C1 [E.9.24] | < 100 nM | –
C=CC(=O)N1CC(N(C)c2ccc(C(N)=O)c3[nH]c(C)cc23)C1 [E.9.25] | < 100 nM | –
C=CC(=O)N1CC[C@H](c2ccc(C(N)=O)c3[nH]c(-c4cc5n(n4)CCOC5)cc23)C1 [E.9.26] | < 100 nM | –
C=CC(=O)N1CC[C@@H](c2ccc(C(N)=O)c3[nH]c(-c4cc5n(n4)CCOC5)cc23)C1 [E.9.27] | < 100 nM | –
C=CC(=O)N1CC([C@@H](C)c2ncc(C(N)=O)c3[nH]ccc23)C1 [E.9.28] | < 100 nM | –
C=CC(=O)N1CC([C@H](C)c2ncc(C(N)=O)c3[nH]ccc23)C1 [E.9.29] | 100 to 1000 nM | –

SMILES | IC50 (read-out: Btk IC50) | also measured
C=CC(=O)N1CCOC[C@@H](c2ncc(C(N)=O)c3[nH]ccc23)C1 [E.9.30] | < 100 nM | –
C=CC(=O)N1CCOC[C@H](c2ncc(C(N)=O)c3[nH]ccc23)C1 [E.9.31] | 1000 to 10000 nM | –
C=CC(=O)N1CCC[C@@H](c2ncc(C(N)=O)c3[nH]ccc23)C1 [E.9.32] | < 100 nM | –
C=CC(=O)N1CCC[C@H](c2ncc(C(N)=O)c3[nH]ccc23)C1 [E.9.33] | 100 to 1000 nM | –
C=CC(=O)N1CC(Nc2cnc(C(N)=O)c3[nH]ccc23)C1 [E.9.34] | < 100 nM | –
C=CC(=O)N1CC(C)(N(C)c2ccc(C(N)=O)c3[nH]ccc23)C1 [E.9.35] | < 100 nM | –
C=CC(=O)N1CCC[C@H](c2cnc(C(N)=O)c3sc(-c4cnn(C)c4)nc23)C1 [E.9.36] | < 100 nM | –
C=CC(=O)N1CCC[C@@H](c2cnc(C(N)=O)c3sc(-c4cnn(C)c4)nc23)C1 [E.9.37] | < 100 nM | –
C=CC(=O)N1CCOC[C@@H](c2ccc(C(N)=O)c3[nH]ccc23)C1 [E.9.38] | < 100 nM | –
C=CC(=O)N1CCOC[C@H](c2ccc(C(N)=O)c3[nH]ccc23)C1 [E.9.39] | 1000 to 10000 nM | –
C=CC(=O)N1CC[C@@H](c2ccc(C(N)=O)c3[nH]c(C)cc23)C1 [E.9.40*] | 100 to 1000 nM | –
C=CC(=O)N1CC[C@H](c2ccc(C(N)=O)c3[nH]c(C)cc23)C1 [E.9.41*] | 100 to 1000 nM | –
C=CC(=O)N1C[C@H]2CN(c3ccc(C(N)=O)c4[nH]ccc34)C[C@H]21 [E.9.42] | 100 to 1000 nM | –
C=CC(=O)N1C[C@@H]2CN(c3ccc(C(N)=O)c4[nH]ccc34)C[C@@H]21 [E.9.43] | 100 to 1000 nM | –
C=CC(=O)N1C[C@H](CO)C[C@@H](c2ccc(C(N)=O)c3[nH]ccc23)C1 [E.9.44] | 100 to 1000 nM | –
C=CC(=O)N1C[C@@H](CO)C[C@@H](c2ccc(C(N)=O)c3[nH]ccc23)C1 [E.9.45] | 1000 to 10000 nM | –
C=CC(=O)N1C[C@@H](CO)C[C@H](c2ccc(C(N)=O)c3[nH]ccc23)C1 [E.9.46] | 1000 to 10000 nM | –
C=CC(=O)N1C[C@H](CO)C[C@H](c2ccc(C(N)=O)c3[nH]ccc23)C1 [E.9.47] | 100 to 1000 nM | –
C=CC(=O)N1CC[C@H](c2ccc(C(N)=O)c3[nH]c(-c4cnn(C)c4)cc23)C1 [E.9.48] | < 100 nM | –
